Experimental data reported in publication PMC6010013, “Synthesis, physiochemical property and antimicrobial activity of novel quaternary ammonium salts” (Journal of Enzyme Inhibition and Medicinal Chemistry, 2017).

Tests used:
Physalospora piricola [1] = test: MBC, agar plating of dilutions without growth; format: cell-based; conditions: 99.9% bactericidal; for MBC: read-out: Minimal bactericidal concentration (MBC)
From the text: (§1) In this paper, antimicrobial activities of 24 QASs were detected by quantitative tests. […] Benzalkonium chloride (BZK) and chlorhexidine acetate (CA) was selected as positive controls. Representative compound POT-C12QAS (2) which synthesised and evaluated in previous work was also taken as a reference compound in MIC, MBC and cytotoxicity tests. […]
(§2) agriculture were used as target pathogens in this study, including three strains of Gram-positive bacteria (S. Aureus, α-H-tococcus, β-H-tococcus), three strains of Gram-negative bacteria (E. coli, P. aeruginosa, Proteus vulgaris) and four strains of fungi (Canidia albicans, Cytospora mandshurica, Physalospora piricola, Aspergillus niger). The antimicrobial tests were assayed, according to standard CLSI methods for antimicrobial dilution susceptibility tests to measure the minimum inhibitory concentration (MIC) and minimum bactericidal concentration (MBC)2.
(§3) A broth tube dilution method was followed to determine the MIC values for all the screened compounds against the micro-organisms, and for comparison benzalkonium chloride (BZK) and chlorhexidine acetate (CA) was used as a reference. For sample preparation, each of the test compounds and reference were dissolved in DMSO or sterile water at a concentration of 1600 μg/mL, and further dilutions of the compounds and reference in culture medium MHB (Muller-Hinton Broth) were prepared at the required quantities of 400, 200, 100 etc., down to 0.39 μg/mL. Bacterial strains and fungal strains were maintained on MHA (Muller-Hinton Agar) medium at 37℃ or 28 ℃ for 12 h or 72h, respectively. The microbial inocula were prepared by suspension in 10 mL of culture medium for colonies from culture on MHA. The cell density of each inoculum was adjusted in culture medium of a 0.5 McFarland standard (1-2×10^8 CFU/mL). The final amount applied was 10^5 CFU/mL for bacteria and fungi. The microbial inocula were added to the twofold diluted samples. One growth control tube was prepared […] the addition of the compound and one blank tube was prepared without the addition of the microorganism. MIC values were read after incubation at 37℃ or 28 ℃ for bacterial and fungal strains, respectively. After 12 h or 72h, the last tube with no growth of micro-organisms was recorded to represent the MIC value expressed in μg/ml. All experiments were carried out three times. […]
(§4) was placed on agar plates in triplicate, and incubated at 37℃ or 28 ℃ for 12 h or 72h. The number of colonies on each plate was read, and the MBC was determined as the lowest concentration that achieved a 99.9% bactericidal in the agar plate.

α-H-tococcus [2] = test: MBC, agar plating of dilutions without growth; format: cell-based; conditions: 99.9% bactericidal; for MBC: read-out: Minimal bactericidal concentration (MBC)
From the text: as §1, §2, §3, §4

Aspergillus niger [3] = test: MBC, agar plating of dilutions without growth; format: cell-based; conditions: 99.9% bactericidal; for MBC: read-out: Minimal bactericidal concentration (MBC)
From the text: as §1, §2, §3, §4

Canidia albicans [4] = test: MBC, agar plating of dilutions without growth; format: cell-based; conditions: 99.9% bactericidal; for MBC: read-out: Minimal bactericidal concentration (MBC)
From the text: as §1, §2, §3, §4

Proteus vulgaris [5] = test: MBC, agar plating of dilutions without growth; format: cell-based; conditions: 99.9% bactericidal; for MBC: read-out: Minimal bactericidal concentration (MBC)
From the text: as §1, §2, §3, §4

S. aureus [6] = test: MBC, agar plating of dilutions without growth; format: cell-based; conditions: 99.9% bactericidal; for MBC: Staphylococcus aureus, read-out: Minimal bactericidal concentration (MBC)
From the text: as §1, §2, §3, §4

P. aeruginosa [7] = test: MBC, agar plating of dilutions without growth; format: cell-based; conditions: 99.9% bactericidal; for MBC: Pseudomonas aeruginosa, read-out: Minimal bactericidal concentration (MBC)
From the text: as §1, §2, §3, §4

E. coli [8] = test: MBC, agar plating of dilutions without growth; format: cell-based; conditions: 99.9% bactericidal; for MBC: Escherichia coli, read-out: Minimal bactericidal concentration (MBC)
From the text: as §1, §2, §3, §4

Cytospora mandshurica [9] = test: MBC, agar plating of dilutions without growth; format: cell-based; conditions: 99.9% bactericidal; for MBC: Cytospora, read-out: Minimal bactericidal concentration (MBC)
From the text: as §1, §2, §3, §4

Physalospora piricola [10] = test: MIC, broth tube dilution; format: cell-based; conditions: 28 ℃; for MIC: 72 h, read-out: Minimal inhibitory concentration (MIC)
From the text: as §1, §2, §3

α-H-tococcus [11] = test: MIC, broth tube dilution; format: cell-based; conditions: 12 h, 37℃; for MIC: read-out: Minimal inhibitory concentration (MIC)
From the text: as §1, §2, §3

Aspergillus niger [12] = test: MIC, broth tube dilution; format: cell-based; conditions: 28 ℃; for MIC: 72 h, read-out: Minimal inhibitory concentration (MIC)
From the text: as §1, §2, §3

Canidia albicans [13] = test: MIC, broth tube dilution; format: cell-based; conditions: 28 ℃; for MIC: 72 h, read-out: Minimal inhibitory concentration (MIC)
From the text: as §1, §2, §3

Proteus vulgaris [14] = test: MIC, broth tube dilution; format: cell-based; conditions: 12 h, 37℃; for MIC: read-out: Minimal inhibitory concentration (MIC)
From the text: as §1, §2, §3

S. aureus [15] = test: MIC, broth tube dilution; format: cell-based; conditions: 12 h, 37℃; for MIC: Staphylococcus aureus, read-out: Minimal inhibitory concentration (MIC)
From the text: as §1, §2, §3

β-H-tococcus = test: MIC, broth tube dilution; format: cell-based; conditions: 12 h, 37℃; for MIC: read-out: Minimal inhibitory concentration (MIC)
From the text: as §1, §2, §3

P. aeruginosa [16] = test: MIC, broth tube dilution; format: cell-based; conditions: 12 h, 37℃; for MIC: Pseudomonas aeruginosa, read-out: Minimal inhibitory concentration (MIC)
From the text: as §1, §2, §3

E. coli [17] = test: MIC, broth tube dilution; format: cell-based; conditions: 12 h, 37℃; for MIC: Escherichia coli, read-out: Minimal inhibitory concentration (MIC)
From the text: as §1, §2, §3

Cytospora mandshurica [18] = test: MIC, broth tube dilution; format: cell-based; conditions: 28 ℃; for MIC: Cytospora, 72 h, read-out: Minimal inhibitory concentration (MIC)
From the text: as §1, §2, §3

Cytotoxicity, MTT assay = format: cell-based, human; conditions: human, MTT, 24 h
Protocol: These six series of antimicrobial compounds may be applied to daily or clinical disinfectants for unbroken skin and trauma, or agricultural fungicides alternatively. Thus, their cytotoxicity for skin or body tissues are crucial. In this study, the cytotoxicity of target compounds was evaluated for human immortalised epidermal (HaCat) and human normal liver (LO2) cell line using MTT assay. […] The IC50 values of 5a, 6a, 10a, 16a, 16 b were about more than 50 μg/mL for LO2 and HaCat.
Cytotoxicity Testing with MTT Method
Human immortalized epidermal cells (HaCat) line were cultured in Dulbecco’s modified Eagle’s medium containing 10% fetal bovine serum, 1% penicillin, and 1% streptomycin at 37°C in a 5% CO2/95% air incubator MCO-15AC (SANYO). Human normal liver cells (LO2) line were cultured in Roswell Park Memorial Institute medium containing 10% fetal bovine serum, 1% penicillin, and 1% streptomycin at 37°C in a 5% CO2/95% air incubator MCO-15AC (SANYO). HaCat or LO2 cells in 96-well plate were adjusted to 1.0 × 10^5 cells mL-1 and cells were passed and cell supernatant was pour out before plating on glass slide at 37°C, 5% CO2 for 24 h. Cells were pretreated with 100 μL QAS for 24 h and cell supernatant with QAS was pour out and washed with PBS buffer system. Then, the cells were treated with the MTT solution (MTT, 3-(4,5-dimethythiazol-2-yl)-2,5-diphenyl-tetrazolium bromide, 20 μL, 5 mg/mL) for 4 h. The dark blue formazan crystal formed in the intact cells was solubilized with dimethyl sulfoxide, and absorbance at 570 nm was measured with a microplate reader (Multiskan MK3-Thermo Labsystems, USA). The results were expressed as percentage of the control value from the normal cells without treatments of QAS. […]

[19] = LO2 human normal liver cells, LO2 cells

Row | Compound | MBC (Physalospora piricola [1]) [µg/mL] | MBC (α-H-tococcus [2]) [µg/mL] | MBC (Aspergillus niger [3]) [µg/mL] | MBC (Canidia albicans [4]) [µg/mL] | MBC (Proteus vulgaris [5]) [µg/mL] | MBC (S. aureus [6]) [µg/mL] | MBC (P. aeruginosa [7]) [µg/mL] | MBC (E. coli [8]) [µg/mL] | MBC (Cytospora mandshurica [9]) [µg/mL] | MIC (Physalospora piricola [10]) [µg/mL] | MIC (α-H-tococcus [11]) [µg/mL] | MIC (Aspergillus niger [12]) [µg/mL] | MIC (Canidia albicans [13]) [µg/mL] | MIC (Proteus vulgaris [14]) [µg/mL] | MIC (S. aureus [15]) [µg/mL] | MIC (β-H-tococcus) [µg/mL] | MIC (P. aeruginosa [16]) [µg/mL] | MIC (E. coli [17]) [µg/mL] | MIC (Cytospora mandshurica [18]) [µg/mL] | IC50 at 24 h (Cytotoxicity, MTT assay; [19]) [µg/mL] | also measured
1 | [H]/N=C(\N/C(=N/[H])NCCCCCCNC(=N)NC(=N)Nc1ccc(Cl)cc1)Nc1ccc(Cl)cc1 [CA, chlorhexidine acetate, reference compound] | 3.12 | 6.25 | 6.25 | 12.5 | 12.5 | 6.25 | 25 | 12.5 | 6.25 | 1.56 | 6.25 | 3.12 | 12.5 | 12.5 | 3.12 | 1.56 | 25 | 6.25 | 6.25 | – | –
2 | C[N+](CCO)(CCO)CCCCCCCCCCCCSc1nnc(-c2ccccc2)o1 [Compound 2, reference compound] | 3.12 | 6.25 | 3.12 | 12.5 | 50 | 12.5 | 25 | 50 | 6.25 | 3.12 | 6.25 | 3.12 | 6.25 | 25 | 6.25 | 6.25 | 12.5 | 25 | 3.12 | 14.2 ± 2.15 | IC50 at 24 h (Cytotoxicity, MTT assay; HaCat human immortalised epidermal cells, HaCat cells): 18.3 ± 2.21 µg/mL
3 | C[N+](CCO)(CCO)CCCCCCSc1nnc(-c2ccc(F)cc2)o1 [Compound 5a] | 12.5 | 50 | 50 | 50 | 100 | 100 | 100 | 100 | 50 | 12.5 | 50 | 50 | 50 | 100 | 100 | 25 | 100 | 100 | 50 | > 50 | IC50 at 24 h (Cytotoxicity, MTT assay; HaCat cells): > 50 µg/mL
4 | C[N+](CCO)(CCO)CCCCCCCCCCSc1nnc(-c2ccc(F)cc2)o1 [Compound 5c] | 6.25 | 12.5 | 25 | 25 | 50 | 25 | 50 | 50 | 12.5 | 3.12 | 12.5 | 25 | 25 | 50 | 25 | 6.25 | 50 | 25 | 12.5 | 23.9 ± 1.68 | IC50 at 24 h (Cytotoxicity, MTT assay; HaCat cells): 19.4 ± 1.23 µg/mL
5 | C[N+](CCO)(CCO)CCCCCCCCCCCCSc1nnc(-c2ccc(F)cc2)o1 [Compound 5d] | 3.12 | 12.5 | 25 | 12.5 | 25 | 12.5 | 50 | 25 | 12.5 | 3.12 | ~12.5 | 25 | 12.5 | ~25 | ~12.5 | ~6.25 | ~50 | ~25 | 12.5 | 6.95 ± 0.62 | IC50 at 24 h (Cytotoxicity, MTT assay; HaCat cells): 6.14 ± 0.53 µg/mL
6 | C[N+](CCO)(CCO)CCCCCCSc1nnc(-c2ccc(C(F)(F)F)cc2)o1 [Compound 6a] | 12.5 | 50 | 25 | 50 | 100 | 50 | 100 | 50 | 25 | 6.25 | 50 | 25 | 50 | 100 | 50 | 25 | 100 | 50 | 12.5 | > 50 | IC50 at 24 h (Cytotoxicity, MTT assay; HaCat cells): > 50 µg/mL
7 | C[N+](CCO)(CCO)CCCCCCCCSc1nnc(-c2ccc(C(F)(F)F)cc2)o1 [Compound 6b] | 6.25 | 25 | 25 | 25 | 50 | 25 | 50 | 50 | 12.5 | 3.12 | 12.5 | 12.5 | 25 | 50 | 25 | 12.5 | 50 | 25 | 12.5 | > 25 | IC50 at 24 h (Cytotoxicity, MTT assay; HaCat cells): > 25 µg/mL
8 | Benzalkonium chloride [BZK, reference compound] | – | – | – | – | – | – | – | – | – | – | – | – | – | – | – | – | – | – | – | – | Minimal bactericidal concentration (MBC) (Physalospora piricola [1]): 3.125 µg/mL; Minimal bactericidal concentration (MBC) (α-H-tococcus [2]): 3.125 µg/mL; Minimal bactericidal concentration (MBC) (Aspergillus niger [3]): 6.25 µg/mL; Minimal bactericidal concentration (MBC) (Canidia albicans [4]): 25 µg/mL; Minimal bactericidal concentration (MBC) (Proteus vulgaris [5]): 25 µg/mL; Minimal bactericidal concentration (MBC) (S. aureus [6]): 3.125 µg/mL; Minimal bactericidal concentration (MBC) (P. aeruginosa [7]): 25 µg/mL; Minimal bactericidal concentration (MBC) (E. coli [8]): 25 µg/mL; Minimal bactericidal concentration (MBC) (Cytospora mandshurica [9]): 6.25 µg/mL; Minimal inhibitory concentration (MIC) (Physalospora piricola [10]; 72h): 3.125 µg/mL; Minimal inhibitory concentration (MIC) (α-H-tococcus [11]): 3.125 µg/mL; Minimal inhibitory concentration (MIC) (Aspergillus niger [12]; 72h): 3.125 µg/mL; Minimal inhibitory concentration (MIC) (Canidia albicans [13]; 72h): 12.5 µg/mL; Minimal inhibitory concentration (MIC) (Proteus vulgaris [14]): 25 µg/mL; Minimal inhibitory concentration (MIC) (S. aureus [15]): 3.125 µg/mL; Minimal inhibitory concentration (MIC) (β-H-tococcus): 1.56 µg/mL; Minimal inhibitory concentration (MIC) (P. aeruginosa [16]): 25 µg/mL; Minimal inhibitory concentration (MIC) (E. coli [17]): 25 µg/mL; Minimal inhibitory concentration (MIC) (Cytospora mandshurica [18]; 72h): 6.25 µg/mL
